#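 These data come from cells grown in 96-well plates and exposed to compound for 48 hours at five concentrations. GI50: concentration for 50% inhibition of growth. The concentration for full growth arrest is given as TGI.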
# Assays:
# Test in all cases: DTP human tumour cell line panel, 48 h
# 786-0 renal = test system: 786-0 renal
# A498 renal = test system: A498 renal
# A549 NSCLC = test system: A549 NSCLC
# ACHN renal = test system: ACHN renal
# CAKI-1 renal = test system: CAKI-1 renal
# CCRF-CEM leukemia = test system: CCRF-CEM leukemia
# COLO 205 colon = test system: COLO 205 colon
# DU-145 prostate = test system: DU-145 prostate
# EKVX NSCLC = test system: EKVX NSCLC
# HCT-116 colon = test system: HCT-116 colon
# HCT-15 colon = test system: HCT-15 colon
# HL-60(TB) leukemia = test system: HL-60(TB) leukemia
# HOP-62 NSCLC = test system: HOP-62 NSCLC
# HOP-92 NSCLC = test system: HOP-92 NSCLC
# HS 578T breast = test system: HS 578T breast
# HT29 colon = test system: HT29 colon
# IGROV1 ovarian = test system: IGROV1 ovarian
# K-562 leukemia = test system: K-562 leukemia
# KM12 colon = test system: KM12 colon
# LOX IMVI melanoma = test system: LOX IMVI melanoma
# M14 melanoma = test system: M14 melanoma
# MALME-3M melanoma = test system: MALME-3M melanoma
# MCF7 breast = test system: MCF7 breast
# MDA-MB-231 breast = test system: MDA-MB-231 breast
# MDA-MB-435 = test system: MDA-MB-435
# MDA-N = test system: MDA-N
# MOLT-4 leukemia = test system: MOLT-4 leukemia
# NCI-H226 lung = test system: NCI-H226 lung
# NCI-H23 lung = test system: NCI-H23 lung
# NCI-H460 lung = test system: NCI-H460 lung
# NCI-H522 lung = test system: NCI-H522 lung
# NCI/ADR-RES ovarian = test system: NCI/ADR-RES ovarian
# OVCAR-3 ovarian = test system: OVCAR-3 ovarian
# OVCAR-4 ovarian = test system: OVCAR-4 ovarian
# OVCAR-5 ovarian = test system: OVCAR-5 ovarian
# OVCAR-8 ovarian = test system: OVCAR-8 ovarian
# PC-3 prostate = test system: PC-3 prostate
# RPMI-8226 leukemia = test system: RPMI-8226 leukemia
# RXF 393 renal = test system: RXF 393 renal
# SF-268 CNS = test system: SF-268 CNS
# SF-295 CNS = test system: SF-295 CNS
# SF-539 CNS = test system: SF-539 CNS
# SK-MEL-2 melanoma = test system: SK-MEL-2 melanoma
# SK-MEL-28 melanoma = test system: SK-MEL-28 melanoma
# SK-MEL-5 melanoma = test system: SK-MEL-5 melanoma
# SK-OV-3 ovarian = test system: SK-OV-3 ovarian
# SN12C renal = test system: SN12C renal
# SNB-19 CNS = test system: SNB-19 CNS
# SNB-75 CNS = test system: SNB-75 CNS
# SR leukemia = test system: SR leukemia
# SW-620 colon = test system: SW-620 colon
# TK-10 renal = test system: TK-10 renal
# U251 CNS = test system: U251 CNS
# UACC-257 melanoma = test system: UACC-257 melanoma
# UACC-62 melanoma = test system: UACC-62 melanoma
# UO-31 renal = test system: UO-31 renal
# BT-549 breast = test system: BT-549 breast
# HCC-2998 colon = test system: HCC-2998 colon
# T-47D breast = test system: T-47D breast
smiles,measurement,setting,value
CC(C)[Si](Oc1cc2c3c(ccc2c(O)c1[C@@H](C)CO[Si](C)(C)C(C)(C)C)C(C)(C)CCC3)(C(C)C)C(C)C,TGI,786-0 renal,> 100 µM
same,TGI,A498 renal,> 100 µM
same,TGI,A549 NSCLC,> 100 µM
same,TGI,ACHN renal,> 100 µM
same,TGI,CAKI-1 renal,> 100 µM
same,TGI,CCRF-CEM leukemia,> 100 µM
same,TGI,COLO 205 colon,> 100 µM
same,TGI,DU-145 prostate,> 100 µM
same,TGI,EKVX NSCLC,> 100 µM
same,TGI,HCT-116 colon,> 100 µM
same,TGI,HCT-15 colon,> 100 µM
same,TGI,HL-60(TB) leukemia,43.4 µM
same,TGI,HOP-62 NSCLC,> 100 µM
same,TGI,HOP-92 NSCLC,> 100 µM
same,TGI,HS 578T breast,> 100 µM
same,TGI,HT29 colon,> 100 µM
same,TGI,IGROV1 ovarian,> 100 µM
same,TGI,K-562 leukemia,> 100 µM
same,TGI,KM12 colon,> 100 µM
same,TGI,LOX IMVI melanoma,> 100 µM
same,TGI,M14 melanoma,> 100 µM
same,TGI,MALME-3M melanoma,> 100 µM
same,TGI,MCF7 breast,> 100 µM
same,TGI,MDA-MB-231 breast,> 100 µM
same,TGI,MDA-MB-435,> 100 µM
same,TGI,MDA-N,> 100 µM
same,TGI,MOLT-4 leukemia,> 100 µM
same,TGI,NCI-H226 lung,> 100 µM
same,TGI,NCI-H23 lung,> 100 µM
same,TGI,NCI-H460 lung,> 100 µM
same,TGI,NCI-H522 lung,> 100 µM
same,TGI,NCI/ADR-RES ovarian,> 100 µM
same,TGI,OVCAR-3 ovarian,> 100 µM
same,TGI,OVCAR-4 ovarian,> 100 µM
same,TGI,OVCAR-5 ovarian,> 100 µM
same,TGI,OVCAR-8 ovarian,> 100 µM
same,TGI,PC-3 prostate,> 100 µM
same,TGI,RPMI-8226 leukemia,> 100 µM
same,TGI,RXF 393 renal,> 100 µM
same,TGI,SF-268 CNS,> 100 µM
same,TGI,SF-295 CNS,> 100 µM
same,TGI,SF-539 CNS,> 100 µM
same,TGI,SK-MEL-2 melanoma,> 100 µM
same,TGI,SK-MEL-28 melanoma,> 100 µM
same,TGI,SK-MEL-5 melanoma,59.8 µM
same,TGI,SK-OV-3 ovarian,> 100 µM
same,TGI,SN12C renal,> 100 µM
same,TGI,SNB-19 CNS,> 100 µM
same,TGI,SNB-75 CNS,> 100 µM
same,TGI,SR leukemia,> 100 µM
same,TGI,SW-620 colon,> 100 µM
same,TGI,TK-10 renal,> 100 µM
same,TGI,U251 CNS,> 100 µM
same,TGI,UACC-257 melanoma,> 100 µM
same,TGI,UACC-62 melanoma,> 100 µM
same,TGI,UO-31 renal,> 100 µM
CC(=O)Nc1c(I)c(C(=O)O)c(I)c(N(C)C(C)=O)c1I,GI50,786-0 renal,> 100 µM
same,TGI,786-0 renal,> 100 µM
same,GI50,A498 renal,> 100 µM
same,TGI,A498 renal,> 100 µM
same,GI50,A549 NSCLC,> 100 µM
same,TGI,A549 NSCLC,> 100 µM
same,GI50,ACHN renal,> 100 µM
same,TGI,ACHN renal,> 100 µM
same,GI50,BT-549 breast,> 100 µM
same,TGI,BT-549 breast,> 100 µM
same,GI50,CAKI-1 renal,> 100 µM
same,TGI,CAKI-1 renal,> 100 µM
same,GI50,CCRF-CEM leukemia,> 100 µM
same,TGI,CCRF-CEM leukemia,> 100 µM
same,GI50,COLO 205 colon,> 100 µM
same,TGI,COLO 205 colon,> 100 µM
same,GI50,DU-145 prostate,> 100 µM
same,TGI,DU-145 prostate,> 100 µM
same,GI50,EKVX NSCLC,> 100 µM
same,TGI,EKVX NSCLC,> 100 µM
same,GI50,HCC-2998 colon,> 100 µM
same,TGI,HCC-2998 colon,> 100 µM
same,GI50,HCT-116 colon,> 100 µM
same,TGI,HCT-116 colon,> 100 µM
same,GI50,HCT-15 colon,> 100 µM
same,TGI,HCT-15 colon,> 100 µM
same,GI50,HL-60(TB) leukemia,> 100 µM
same,TGI,HL-60(TB) leukemia,> 100 µM
same,GI50,HOP-62 NSCLC,> 100 µM
same,TGI,HOP-62 NSCLC,> 100 µM
same,GI50,HOP-92 NSCLC,> 100 µM
same,TGI,HOP-92 NSCLC,> 100 µM
same,GI50,HS 578T breast,46.4 µM
same,TGI,HS 578T breast,> 100 µM
same,GI50,HT29 colon,> 100 µM
same,TGI,HT29 colon,> 100 µM
same,GI50,IGROV1 ovarian,> 100 µM
same,TGI,IGROV1 ovarian,> 100 µM
same,GI50,K-562 leukemia,> 100 µM
same,TGI,K-562 leukemia,> 100 µM
same,GI50,KM12 colon,> 100 µM
same,TGI,KM12 colon,> 100 µM
same,GI50,LOX IMVI melanoma,> 100 µM
same,TGI,LOX IMVI melanoma,> 100 µM
same,GI50,M14 melanoma,> 100 µM
same,TGI,M14 melanoma,> 100 µM
same,GI50,MALME-3M melanoma,> 100 µM
same,TGI,MALME-3M melanoma,> 100 µM
same,GI50,MCF7 breast,> 100 µM
same,TGI,MCF7 breast,> 100 µM
same,GI50,MDA-MB-231 breast,> 100 µM
same,TGI,MDA-MB-231 breast,> 100 µM
same,GI50,MDA-MB-435,> 100 µM
same,TGI,MDA-MB-435,> 100 µM
same,GI50,MOLT-4 leukemia,> 100 µM
same,TGI,MOLT-4 leukemia,> 100 µM
same,GI50,NCI-H226 lung,> 100 µM
same,TGI,NCI-H226 lung,> 100 µM
same,GI50,NCI-H23 lung,> 100 µM
same,TGI,NCI-H23 lung,> 100 µM
same,GI50,NCI-H460 lung,> 100 µM
same,TGI,NCI-H460 lung,> 100 µM
same,GI50,NCI-H522 lung,> 100 µM
same,TGI,NCI-H522 lung,> 100 µM
same,GI50,NCI/ADR-RES ovarian,> 100 µM
same,TGI,NCI/ADR-RES ovarian,> 100 µM
same,GI50,OVCAR-3 ovarian,> 100 µM
same,TGI,OVCAR-3 ovarian,> 100 µM
same,GI50,OVCAR-4 ovarian,> 100 µM
same,TGI,OVCAR-4 ovarian,> 100 µM
same,GI50,OVCAR-5 ovarian,> 100 µM
same,TGI,OVCAR-5 ovarian,> 100 µM
same,GI50,OVCAR-8 ovarian,> 100 µM
same,TGI,OVCAR-8 ovarian,> 100 µM
same,GI50,PC-3 prostate,> 100 µM
same,TGI,PC-3 prostate,> 100 µM
same,GI50,RPMI-8226 leukemia,> 100 µM
same,TGI,RPMI-8226 leukemia,> 100 µM
same,GI50,RXF 393 renal,> 100 µM
same,TGI,RXF 393 renal,> 100 µM
same,GI50,SF-268 CNS,> 100 µM
same,TGI,SF-268 CNS,> 100 µM
same,GI50,SF-295 CNS,> 100 µM
same,TGI,SF-295 CNS,> 100 µM
same,GI50,SF-539 CNS,> 100 µM
same,TGI,SF-539 CNS,> 100 µM
same,GI50,SK-MEL-2 melanoma,> 100 µM
same,TGI,SK-MEL-2 melanoma,> 100 µM
same,GI50,SK-MEL-28 melanoma,> 100 µM
same,TGI,SK-MEL-28 melanoma,> 100 µM
same,GI50,SK-MEL-5 melanoma,> 100 µM
same,TGI,SK-MEL-5 melanoma,> 100 µM
same,GI50,SK-OV-3 ovarian,> 100 µM
same,TGI,SK-OV-3 ovarian,> 100 µM
same,GI50,SN12C renal,> 100 µM
same,TGI,SN12C renal,> 100 µM
same,GI50,SNB-19 CNS,> 100 µM
same,TGI,SNB-19 CNS,> 100 µM
same,GI50,SNB-75 CNS,> 100 µM
same,TGI,SNB-75 CNS,> 100 µM
same,GI50,SR leukemia,> 100 µM
same,TGI,SR leukemia,> 100 µM
same,GI50,SW-620 colon,> 100 µM
same,TGI,SW-620 colon,> 100 µM
same,GI50,T-47D breast,> 100 µM
same,TGI,T-47D breast,> 100 µM
same,GI50,TK-10 renal,> 100 µM
same,TGI,TK-10 renal,> 100 µM
same,GI50,U251 CNS,> 100 µM
same,TGI,U251 CNS,> 100 µM
same,GI50,UACC-257 melanoma,> 100 µM
same,TGI,UACC-257 melanoma,> 100 µM
same,GI50,UACC-62 melanoma,> 100 µM
same,TGI,UACC-62 melanoma,> 100 µM
same,GI50,UO-31 renal,> 100 µM
same,TGI,UO-31 renal,> 100 µM
